Usually inhibition stands for the drop in the measured response relative to a control, in per cent.

Test [1] has as its target T1, human recombinant adrenergic α1D receptor (Homo sapiens, UniProt P25100).
T1 construct: expressed in transfected cells; host or cells: HEK-293
T1 sequence (P25100 1-572): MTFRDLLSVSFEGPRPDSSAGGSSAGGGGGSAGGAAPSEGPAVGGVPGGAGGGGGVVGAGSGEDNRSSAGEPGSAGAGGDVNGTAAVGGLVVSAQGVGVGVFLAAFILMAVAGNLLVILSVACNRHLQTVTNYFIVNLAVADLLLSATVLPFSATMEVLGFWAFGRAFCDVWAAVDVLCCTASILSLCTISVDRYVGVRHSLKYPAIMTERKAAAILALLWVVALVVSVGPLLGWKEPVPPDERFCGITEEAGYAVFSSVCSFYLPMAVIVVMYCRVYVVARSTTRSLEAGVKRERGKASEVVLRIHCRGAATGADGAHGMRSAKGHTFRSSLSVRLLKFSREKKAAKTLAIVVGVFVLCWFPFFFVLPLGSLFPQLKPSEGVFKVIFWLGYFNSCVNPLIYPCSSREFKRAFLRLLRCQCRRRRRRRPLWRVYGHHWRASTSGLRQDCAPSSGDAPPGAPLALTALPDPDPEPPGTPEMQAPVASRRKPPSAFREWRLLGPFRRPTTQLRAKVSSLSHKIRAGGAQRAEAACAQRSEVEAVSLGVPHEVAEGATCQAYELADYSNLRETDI
As to the kind of experiment: Radioligand binding, adrenergic α1D receptor ([3H]Prazosin). The note with it: 0.1 μM compound; HEK-293 cells; 0.6 nM [3H]Prazosin; read-out: Percentage inhibition of ligand binding, Adrenergic α1D. How it is done: Compounds were incubated with 0.6 nM [3H]Prazosin for 60 min at 25° C. Non-specific binding was estimated in the presence of 10 μM phentolamine. Receptor proteins were filtered and washed, the filters were then counted to determine [3H]Prazosin specifically bound. Compounds were screened at 1 μM or lower, using 1% DMSO as vehicle. Biochemical assay results are presented as the percent inhibition of specific binding in Table 2.

Test [2] deals with T2, human recombinant adrenergic α2B receptor (Homo sapiens, UniProt P18089).
T2 construct: expressed in transfected cells; host or cells: CHO-K1
T2 sequence (P18089 1-450): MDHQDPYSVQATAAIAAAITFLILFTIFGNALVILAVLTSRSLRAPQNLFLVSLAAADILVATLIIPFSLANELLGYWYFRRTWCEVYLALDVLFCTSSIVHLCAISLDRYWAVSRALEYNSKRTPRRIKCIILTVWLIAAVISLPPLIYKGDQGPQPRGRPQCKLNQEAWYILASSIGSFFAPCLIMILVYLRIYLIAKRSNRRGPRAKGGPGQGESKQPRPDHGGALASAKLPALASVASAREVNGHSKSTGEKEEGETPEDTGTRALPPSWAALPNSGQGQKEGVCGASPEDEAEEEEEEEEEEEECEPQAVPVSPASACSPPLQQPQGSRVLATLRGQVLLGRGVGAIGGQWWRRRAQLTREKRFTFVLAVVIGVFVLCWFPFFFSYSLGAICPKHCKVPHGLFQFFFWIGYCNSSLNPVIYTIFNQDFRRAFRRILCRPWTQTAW
As to the kind of experiment: Radioligand binding, adrenergic α2B receptor ([3H]Rauwolscine). The note with it: 0.1 μM compound, CHO-K1 cells, read-out: Percentage inhibition of ligand binding, Adrenergic α2B. An outline of the steps: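 Percent inhibition of specific [3H]Rauwolscine (2.5 nM) binding, compounds at ≤1 μM, 1% DMSO vehicle, 10 μM prazosin defining nonspecific. Receptor: human α2B expressed in CHO-K1 cells, 60 min incubation at 25 °C in Tris-HCl pH 7.4 buffer (MgCl2, EDTA, BSA); filtered, washed, counted.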

The target of test [3] is T3, human recombinant adrenergic α2A receptor (Homo sapiens, UniProt P08913).
T3 construct: expressed in transfected cells; host or cells: insect Sf9 cells
T3 sequence (P08913 1-465): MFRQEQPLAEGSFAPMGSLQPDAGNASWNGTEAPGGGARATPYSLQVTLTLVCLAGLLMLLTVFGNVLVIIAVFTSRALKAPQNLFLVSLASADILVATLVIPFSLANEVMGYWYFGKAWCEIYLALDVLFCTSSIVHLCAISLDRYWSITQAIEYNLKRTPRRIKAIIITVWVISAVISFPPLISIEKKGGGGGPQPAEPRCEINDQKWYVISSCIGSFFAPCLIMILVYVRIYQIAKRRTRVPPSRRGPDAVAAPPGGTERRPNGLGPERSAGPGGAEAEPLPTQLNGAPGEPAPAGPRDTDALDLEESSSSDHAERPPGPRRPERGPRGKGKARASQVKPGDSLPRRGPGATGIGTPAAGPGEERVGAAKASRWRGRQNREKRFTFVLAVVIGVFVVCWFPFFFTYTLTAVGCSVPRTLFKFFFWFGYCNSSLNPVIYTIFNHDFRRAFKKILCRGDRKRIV
As to the kind of experiment: Radioligand binding, adrenergic α2A receptor ([3H]MK-912). The note with it: 0.1 μM compound; Sf9 cells; 1 nM [3H]MK-912; read-out: Percentage inhibition of ligand binding, Adrenergic α2A. An outline of the steps: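 Percent inhibition of specific [3H]MK-912 (1 nM) binding measured by filtration counting, compounds tested at ≤1 μM in 1% DMSO. Receptor: human α2A from Sf9 cells; incubation 60 min, 25 °C, pH 7.4; 10 μM WB-4101 defined nonspecific binding.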

Test [4] concerns the target T4, rat adrenergic α1B receptor (Rattus norvegicus, UniProt P15823).
T4 construct: rat adrenergic α1B receptor obtained from Wistar Rat liver; from tissue; host or cells: Wistar rat liver
T4 sequence (P15823 1-515): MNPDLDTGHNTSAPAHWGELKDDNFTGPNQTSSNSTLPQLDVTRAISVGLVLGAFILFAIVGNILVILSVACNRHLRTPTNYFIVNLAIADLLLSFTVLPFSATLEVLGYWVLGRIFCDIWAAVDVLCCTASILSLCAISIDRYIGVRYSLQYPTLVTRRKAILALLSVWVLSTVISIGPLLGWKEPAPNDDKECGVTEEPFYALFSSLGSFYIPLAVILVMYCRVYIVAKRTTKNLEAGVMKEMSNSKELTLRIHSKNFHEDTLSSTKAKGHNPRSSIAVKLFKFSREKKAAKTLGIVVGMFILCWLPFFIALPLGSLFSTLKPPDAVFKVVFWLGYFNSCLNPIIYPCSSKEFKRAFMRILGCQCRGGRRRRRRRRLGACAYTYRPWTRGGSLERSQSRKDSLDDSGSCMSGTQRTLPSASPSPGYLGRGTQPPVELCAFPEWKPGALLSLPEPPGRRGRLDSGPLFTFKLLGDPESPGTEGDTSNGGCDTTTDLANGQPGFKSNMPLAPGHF
Briefly: Radioligand binding, adrenergic α1B receptor ([3H]Prazosin). The note with it: 0.1 μM compound, Wistar rat liver, read-out: Percentage inhibition of ligand binding, Adrenergic α1B. An outline of the steps:
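Wistar rat liver α1B receptor preparation incubated with 0.25 nM [3H]prazosin and compound for 60 min at 25° C in 50 mM Tris-HCl pH 7.4, 0.5 mM EDTA; nonspecific binding defined with 10 μM phentolamine.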

In the case of `CC(=O)Nc1ccc(-c2ccc(-n3c4c(c5cc(C)ccc53)CN(C)CC4)nc2)cn1` [Compound No. 139, N-(6′-(2,8-dimethyl-3,4-dihydro-1H-pyrido[4,3-b]indol-5(2H)-yl)-3,3′-bipyridin-6-yl)acetamide], the inhibition at 0.1 µM worked out at 45% in test [1], 59% in test [2], 18% in test [3] and 55% in test [4].

Consider `Cc1ccc2c(c1)c1c(n2-c2cscc2-c2cnc(N(C)C)nc2)CCN(C)C1` [Compound 40], for which the inhibition at 0.1 µM came to 79% in test [1], 89% in test [2], 91% in test [3] and 43% in test [4].

Consider `Cc1ccc2c(c1)c1c(n2-c2ccc(-c3ccc(F)nc3)cn2)CCN(C)C1` [Compound No. 142, 5-(6′-fluoro-3,3′-bipyridin-6-yl)-2,8-dimethyl-2,3,4,5-tetrahydro-1H-pyrido[4,3-b]indole], for which the inhibition at 0.1 µM was 78% in test [1], 91% in test [2], 59% in test [3] and 83% in test [4].

As for `Cc1cc(C)c2c(c1)c1c(n2-c2ccc3ncccc3c2)CCN(C)C1` [Compound 48], the inhibition at 0.1 µM was -5% in test [1], 16% in test [2], 19% in test [3] and 1% in test [4].

Turning to `Cc1ccc2c(c1)c1c(n2-c2cscc2-c2cncc3ccccc23)CCN(C)C1` [Compound 34], the inhibition at 0.1 µM was found to be 18% in test [1], 1% in test [2], 28% in test [3] and 16% in test [4].

For the molecule `Cc1ccc2c(c1)c1c(n2-c2cccc(-c3cncc4ccccc34)c2)CCN(C)C1` [Compound No. 67, 5-(3-(isoquinolin-4-yl)phenyl)-2,8-dimethyl-2,3,4,5-tetrahydro-1H-pyrido[4,3-b]indole], the inhibition at 0.1 µM in test [1] is -1%; in test [2], 13%; in test [3], 39%; in test [4], 2%.

Consider `Cc1ccc2c(c1)c1c(n2-c2ccc(-c3cnn(C)c3)cn2)CCN(C)C1` [Compound No. 134, 2,8-dimethyl-5-(5-(1-methyl-1H-pyrazol-4-yl)pyridin-2-yl)-2,3,4,5-tetrahydro-1H-pyrido[4,3-b]indole], for which the inhibition at 0.1 µM in test [1] was 30%; in test [2], 73%; in test [3], 38%; in test [4], 43%.

In the case of `CNC(=O)c1ccc(-c2ccccc2-n2c3c(c4cc(C)ccc42)CN(C)CC3)cn1` [Compound No. 71, 5-(2-(2,8-dimethyl-3,4-dihydro-1H-pyrido[4,3-b]indol-5(2H)-yl)phenyl)-N-methylpicolinamide], the inhibition at 0.1 µM in test [1] turned out to be 87%; in test [2], 89%; in test [3] it was 11%; in test [4] it was 66%.

With `Cc1ccc2c(c1)c1c(n2-c2ccc(-c3cccc4ccccc34)cn2)CCN(C)C1` [Compound No. 141, 2,8-dimethyl-5-(5-(naphthalen-1-yl)pyridin-2-yl)-2,3,4,5-tetrahydro-1H-pyrido[4,3-b]indole], the inhibition at 0.1 µM is 50% in test [1], 82% in test [2], 69% in test [3] and 62% in test [4].

Consider `Cc1ccc2c(c1)c1c(n2-c2ccccc2-c2cc3ccccc3s2)CCN(C)C1` [Compound No. 103, 5-(2-(benzo[b]thiophen-2-yl)phenyl)-2,8-dimethyl-2,3,4,5-tetrahydro-1H-pyrido[4,3-b]indole], for which the inhibition at 0.1 µM amounted to 62% in test [1], 97% in test [2], 98% in test [3] and 41% in test [4].

As to `Cc1csc(-c2ccc(-n3c4c(c5cc(C)ccc53)CN(C)CC4)nc2)c1` [Compound No. 144, 2,8-dimethyl-5-(5-(4-methylthiophen-2-yl)pyridin-2-yl)-2,3,4,5-tetrahydro-1H-pyrido[4,3-b]indole], the inhibition at 0.1 µM was determined as 52% in test [1], 95% in test [2], 72% in test [3] and 68% in test [4].

Take `Cc1ccc2c(c1)c1c(n2-c2cccc(-c3cnc(N(C)C)nc3)c2)CCN(C)C1` [Compound 42, 5-(3-(2,8-dimethyl-3,4-dihydro-1H-pyrido[4,3-b]indol-5(2H)-yl)phenyl)-N,N-dimethylpyrimidin-2-amine]: the inhibition at 0.1 µM in test [1] is -3%; in test [2], 7%; in test [3] it was 17%; in test [4], 10%.

For the molecule `Cc1ccc2c(c1)c1c(n2-c2cscc2-c2cc3ccccc3s2)CCN(C)C1` [Compound No. 151], the inhibition at 0.1 µM in test [1] was found to be 67%; in test [2] it was 99%; in test [3], 96%; in test [4] it was 59%.

Turning to `Cc1ccc2c(c1)c1c(n2-c2cccc3ccncc23)CCN(C)C1` [Compound 58, 5-(isoquinolin-8-yl)-2,8-dimethyl-2,3,4,5-tetrahydro-1H-pyrido[4,3-b]indole], the inhibition at 0.1 µM in test [1] is 24%; in test [2], 39%; in test [3] it was 22%; in test [4] it was 22%.

(Values after patent publication US20140155384A1, “COMPOUNDS AND METHODS OF TREATING DIABETES” (Medivation Technologies, Inc., priority 2011, published 2014).)
